The values below come from patent publication US20100267680A1, “USE OF AT LEAST ONE OXIME DERIVATIVE OF CHOLEST-4-EN-3-ONE AS ANTIOXIDANTS” (priority 2007, published 2010).

Series [1] in a line: Competition with DMPO for tBuO radical, EPR quantification of DMPO-tBuO adduct. Particulars: for % inhibition of the DMPO-tBuO radical: compound 20 mM equimolar to DMPO. The protocol:
The nitrones trap the radical species (R.; […]) and allow their observation by electron paramagnetic resonance (EPR) (Degray J. et al. Electron Spin Resonance, Ed N.M. Atherton, Atheaeum Press Ltd; Cambridge, 1994, 14, 246).
The incubation of the DMPO (Interchim-U2469) (20 mM) in deoxygenated toluene (Sigma-Aldrich) in the presence of the tBuO (tert-butoxyl) radical, generated by photolysis, makes it possible to identify and quantify by EPR the signal of the DMPO-tBuO radical. This signal is inhibited in the presence of an equimolar quantity of cholest-4-en-3-one oxime.
The EPR signal allows integration in the form of an area of the signal of the DMPO-tBuO adduct and therefore a relative quantification of this radical entity.
All the experiments were carried out on an X-band Bruker ESP300 device (9.5 GHz) at ambient temperature. The solutions were studied in a quartz EPR tube.

The nature of series [2]: Oxidation of cumene to cumene hydroperoxide by oxygen with AIBN, HPLC-UV assay. The settings on record: for % of reduction of the oxidation of the cumene / Area of the signal, in relative units, of the cumene hydroperoxide: 2 equivalents of AIBN, 2 hours 45° C. The protocol: The oxidation of cumene at atmospheric pressure and at 37° C. by oxygen is known and described in the presence of a radical initiator such as AIBN (azobisisobutyronitrile) (Blanchard H. S., J. Am. Chem. Soc. 1959, 81, 4548). A recent publication used this reaction to classify the antioxidant potential of known products such as vitamin E (which is the universal reference), BHT (butylated hydroxytoluene) and other products.
In the following experiment we reproduced the same experimental conditions as those described in the publication of Becker D. A. et al. (J. Am. Chem. Soc. 2002, 124, 4678-4684). A high pressure liquid chromatography method coupled with a UV detector was used to detect cumene hydroperoxide. The column used is an Agilent Zorbax Eclipse XDB RPC8 column (150×4.6 mm) coupled with a UV detector fixed at 254 nm. The gradient used is detailed in the following table: […]
2 ml of cumene (AcrosOrganic) and 0.5 ml of methanol are mixed, azobisisobutyronitrile (AcrosOrganic) is added (2 equivalents) and the solution taken to 45° C. in order to accelerate the chemical reaction. The cumene hydroperoxide appears over time and is assayed by the HPLC method.
The technique used made it possible to compare the appearance of the cumene hydroperoxide in the presence of an antioxidant agent such as the claimed products and vitamin E used as reference product.

The subject of series [3] is Beagles. In words: General toxicity study, oral once daily for 39 weeks. The series is classed as in vivo. The settings on record: suspension in corn oil. How it is done: A general toxicity study was carried out on Beagles receiving cholest-4-èn-3-one oxime in suspension in corn oil by oral administration once daily for 39 weeks. The detailed toxicological analysis of this study made it possible to describe a dose with a no-observed-effect level (NOEL) at 50 mg/kg.

The nature of series [4]: Pharmacokinetics in the dog, oral and intra-venous, plasma assay by HPLC-MS. It is filed as in vivo. The settings on record: 500 mg/kg oral route, suspension in corn oil, vs intra-venous. The protocol: A study of pharmacokinetics with administration by oral route in suspension in corn oil and by intra-venous route in solution in cremophor/ethanol/water (5%, 10%, 85%) made it possible to calculate the bioavailability of the product. The assay of the product in the plasma is carried out by a high pressure liquid chromatography method coupled with mass spectrometry.

The nature of series [5]: Chemical stability of powder under ICH storage conditions, HPLC-UV total impurities. It is filed as physicochemical. Particulars: for total impurities: powder. The protocol: These analyses were carried out using a high pressure liquid chromatography method coupled with a UV detector. This method makes it possible to quantify the impurities at a level of 0.05%.

For the compound `CC(C)CCC[C@@H](C)[C@H]1CC[C@H]2[C@@H]3CCC4=CC(=NO)CC[C@]4(C)[C@H]3CC[C@]12C` [cholest-4-en-3-one oxime], the “Area of the DMPO-tBuO signal at 200 s in relative units” value in series [1] (DMPO 20 mM + compound 20 mM, (t-BuO)2 20 mM, photolysis at 350 nm, 200 s) was found to be 3 relative units. For the same compound, the “Area of the DMPO-tBuO signal at 400 s in relative units” value in series [1] (DMPO 20 mM + compound 20 mM, (t-BuO)2 20 mM, photolysis at 350 nm, 400 s) came to 5.5 relative units. For the same compound, the “DMPO-tBuO EPR signal in the presence of an equimolar quantity of compound” value in series [1] (DMPO 20 mM in deoxygenated toluene, equimolar compound) was “inhibited”. The “% inhibition of the DMPO-tBuO radical” value in series [1] (200 s) was 50%; in series [1] (400 s) it was 40%. Further, the “inhibition of the level of the DMPO-tBuO signal radical” value in series [1] (conclusion of Example 1) was around 50%. In series [1] (rapid kinetics), the “kinetics of inhibition of the DMPO-tBuO signal” value was “less than 10 minutes”. The results for the “% of reduction of the oxidation of the cumene” value in series [2] (100 μM) and in series [2] (200 μM) were 38% and 57%, respectively. For the same compound, the “Area of the signal, in relative units, of the cumene hydroperoxide” value in series [2] (100 μM) worked out at 250 relative units; in series [2] (200 μM) it was 175 relative units. In series [2] (conclusion of Example 2), the “reduction of the oxidation of the cumene by oxygen” value is recorded as “approximately 40%”. In addition, the “activity compared with vitamin E” value in series [2] (same concentrations, same conditions) is “activity similar to vitamin E”. Further, in series [3], the “no-observed-effect level (NOEL)” value is on record as 50 mg/kg. For the same compound, in series [4], the bioavailability amounted to 6%. The “change in the quality of the product” value in series [5] (after 2 year's storage at 25° C.) and in series [5] (after 6 months of storage at 40° C.) was “No change in the quality of the product” throughout. Further, the total impurities in series [5] (25° C. under 60% relative humidity, T0) was found to be 1.8%; in series [5] (25° C. under 60% relative humidity, T24 months) it was 1.8%; in series [5] (40° C. under 75% relative humidity, T0), 2.1%; in series [5] (40° C. under 75% relative humidity, T6 months), 1.9%.

Take vitamin E [reference compound]: in series [2] (100 μM), the “% of reduction of the oxidation of the cumene” value is 39% and the “Area of the signal, in relative units, of the cumene hydroperoxide” value was found to be 245 relative units.
